Measured values: the CheMixHub viscosity set

Test: xn = mol fraction of the nth substance listed

ClC(Cl)(Cl)Cl + Cc1ccccc1
viscosity [mPa·s], 101 kPa
Conditions	293.15 K	298.15 K	303.15 K	313.15 K
x1 = 0.1022	0.6227	0.5867	0.5527	0.4932
x1 = 0.1977	0.6508	0.6111	0.5749	0.5126
x1 = 0.3029	0.6875	0.6446	0.606	0.5394
x1 = 0.4043	0.7215	0.6753	0.634	0.5628
x1 = 0.4982	0.7585	0.712	0.6656	0.5897
x1 = 0.5988	0.7983	0.7461	0.6988	0.6181
x1 = 0.7091	0.8428	0.7861	0.7353	0.6485
x1 = 0.8107	0.8905	0.8298	0.7755	0.6831
x1 = 0.916	0.9415	0.88	0.8249	0.719
x2 = 0.1	–	0.8643	–	–
x2 = 0.2	–	0.8211	–	–
x2 = 0.3	–	0.7802	–	–
x2 = 0.4	–	0.7415	–	–
x2 = 0.5	–	0.7049	–	–
x2 = 0.6	–	0.6705	–	–
x2 = 0.7	–	0.6381	–	–
x2 = 0.8	–	0.6078	–	–
x2 = 0.9	–	0.5794	–	–

ClC(Cl)(Cl)Cl + Cc1ccccc1C
298.15 K, 101 kPa
Conditions	viscosity [mPa·s]
x1 = 0.0656	0.722
x1 = 0.2424	0.636
x1 = 0.4464	0.606
x1 = 0.5536	0.628
x1 = 0.5803	0.639
x1 = 0.6341	0.666
x1 = 0.793	0.772
x1 = 0.9312	0.872

CCCOC(C)=O + ClC(Cl)(Cl)Cl
101.33 kPa
Conditions	viscosity [mPa·s]
303.15 K, x2 = 0.0422	0.526
303.15 K, x2 = 0.1298	0.547
303.15 K, x2 = 0.2541	0.576
303.15 K, x2 = 0.3334	0.598
303.15 K, x2 = 0.488	0.639
303.15 K, x2 = 0.5271	0.657
303.15 K, x2 = 0.6005	0.676
303.15 K, x2 = 0.7049	0.716
303.15 K, x2 = 0.8748	0.784
303.15 K, x2 = 0.9403	0.815
313.15 K, x2 = 0.2073	0.494
313.15 K, x2 = 0.4055	0.541
313.15 K, x2 = 0.5078	0.568
313.15 K, x2 = 0.601	0.593
313.15 K, x2 = 0.802	0.661

CCN(CC)CC + ClC(Cl)Cl
298.15 K, 101 kPa
Conditions	viscosity [mPa·s]
x2 = 0.0983	0.389
x2 = 0.1979	0.442
x2 = 0.2978	0.503
x2 = 0.3989	0.567
x2 = 0.4988	0.618
x2 = 0.5829	0.64
x2 = 0.6859	0.631
x2 = 0.8008	0.604
x2 = 0.901	0.574

ClC(Cl)(Cl)Cl + ClC(Cl)Cl
Conditions	viscosity [mPa·s]
293.15 K, 101.33 kPa, x1 = 0.2087	0.6645
293.15 K, 101.33 kPa, x1 = 0.517	0.7319
293.15 K, 101.33 kPa, x1 = 0.9083	0.9238
298.15 K, 101 kPa, x1 = 0.1566	0.569
298.15 K, 101 kPa, x1 = 0.5099	0.659
298.15 K, 101 kPa, x1 = 0.7699	0.761
298.15 K, 101 kPa, x2 = 0.2298	0.761
298.15 K, 101 kPa, x2 = 0.51	0.659
298.15 K, 101 kPa, x2 = 0.8437	0.569
298.15 K, 101.33 kPa, x1 = 0.2087	0.6296
298.15 K, 101.33 kPa, x1 = 0.517	0.6888
298.15 K, 101.33 kPa, x1 = 0.9083	0.8561
298.16 K, 101 kPa, x2 = 0.151	0.816
298.16 K, 101 kPa, x2 = 0.328	0.732
298.16 K, 101 kPa, x2 = 0.61	0.633
298.16 K, 101 kPa, x2 = 0.803	0.583
303.15 K, 101.3 kPa, x1 = 0.502	0.6248
303.15 K, 101.33 kPa, x1 = 0.2087	0.5964
303.15 K, 101.33 kPa, x1 = 0.517	0.6543
303.15 K, 101.33 kPa, x1 = 0.9083	0.8041
308.15 K, 101.33 kPa, x1 = 0.2087	0.5644
308.15 K, 101.33 kPa, x1 = 0.517	0.6241
308.15 K, 101.33 kPa, x1 = 0.9083	0.7523
313.15 K, 101.33 kPa, x1 = 0.2087	0.5501
313.15 K, 101.33 kPa, x1 = 0.517	0.5928
313.15 K, 101.33 kPa, x1 = 0.9083	0.7143
318.15 K, 101.33 kPa, x1 = 0.2087	0.523
318.15 K, 101.33 kPa, x1 = 0.517	0.5657
318.15 K, 101.33 kPa, x1 = 0.9083	0.6686
323.15 K, 101.33 kPa, x1 = 0.2087	0.5032
323.15 K, 101.33 kPa, x1 = 0.517	0.5444
323.15 K, 101.33 kPa, x1 = 0.9083	0.6335

ClC(Cl)(Cl)Cl + ClCCCl
303.15 K, 101.3 kPa
Conditions	viscosity [mPa·s]
x2 = 0.1081	0.7755
x2 = 0.1414	0.7609
x2 = 0.1994	0.739
x2 = 0.3171	0.7081
x2 = 0.3777	0.6975
x2 = 0.5001	0.6832
x2 = 0.5454	0.6817
x2 = 0.5978	0.6814
x2 = 0.6503	0.6809
x2 = 0.6758	0.6824
x2 = 0.7592	0.6879
x2 = 0.8193	0.6942
x2 = 0.8711	0.7016
x2 = 0.8965	0.7055
x2 = 0.934	0.7126

ClC(Cl)(Cl)Cl + Clc1ccccc1
298.15 K, 101 kPa
Conditions	viscosity [mPa·s]
x2 = 0.2	0.844
x2 = 0.4	0.81
x2 = 0.6	0.787
x2 = 0.8	0.769

FCCl + FC(F)(Cl)C(F)(F)Cl
Conditions	viscosity [mPa·s]
312.21 K, 101.13 kPa, x1 = 0.754	0.2322

CC1CCCCC1O (centres undefined) + NC1CCCCC1
viscosity [mPa·s], 100 kPa
Conditions	x1 = 0.04642	x1 = 0.09319	x1 = 0.1878	x1 = 0.2839	x1 = 0.3814	x1 = 0.4805	x1 = 0.5811	x1 = 0.6834	x1 = 0.7872	x1 = 0.8928
293.15 K	2.657	2.965	3.533	4.632	5.819	7.685	11.76	15.63	20	27.62
298.15 K	2.328	2.582	3.048	3.894	4.852	6.53	9.343	12.39	15.17	19.95
303.15 K	2.057	2.27	2.656	3.351	4.096	5.343	7.677	9.722	11.73	14.98
308.15 K	1.833	2.008	2.335	3.042	3.498	4.468	6.235	7.748	9.687	11.45
313.15 K	1.645	1.791	2.068	2.65	3.018	3.782	5.118	6.295	7.365	8.876

ClC(Cl)(Cl)Cl + Nc1ccccc1
298.15 K, 101.32 kPa
Conditions	viscosity [mPa·s]
x2 = 0.1018	0.991
x2 = 0.2047	1.111
x2 = 0.325	1.297
x2 = 0.3901	1.418
x2 = 0.4954	1.655
x2 = 0.5976	1.914
x2 = 0.7051	2.263
x2 = 0.8076	2.672
x2 = 0.9265	3.3

CCN(CC)CC + O
293.15 K, 100 kPa
Conditions	viscosity [mPa·s]
x1 = 0.0049	1.176
x1 = 0.0095	1.323
x1 = 0.015	1.554
x2 = 0.1006	0.4211
x2 = 0.204	0.5113
x2 = 0.2996	0.6374
x2 = 0.4007	0.8296
x2 = 0.4997	1.135
x2 = 0.5997	1.614
x2 = 0.7028	2.385
x2 = 0.98	1.722
